Measured values from patent publication US20030229451A1, “Methods and systems for analyzing complex biological systems” (priority 2001, published 2003).

system: Magnaporthe grisea; test: not given; assay type: cell-based; conditions: 250 μg/ml

Row | SMILES | growth results for Tiers 3 and 4 compared to Unknown 4
1 | O=C(O)CNCP(=O)(O)O [Glyphosate] | nearly identical

same assay, conditions: 1.0 mg/ml

Row | SMILES | growth inhibition of M. grisea
2 | O=C(O)CNCP(=O)(O)O [Glyphosate] | remediated by inclusion of aromatic amino acids

same assay, conditions: concentrations insufficient to inhibit growth

Row | SMILES | growth of M. grisea in minimal media | growth of M. grisea in minimal plus tyrosine media
3 | CS(=O)(=O)c1cc(C(F)(F)F)ccc1C(=O)c1cnoc1C1CC1 [Isoxaflutole] | unaffected | inhibited

same assay, conditions: in the presence of compound

Row | SMILES | nitrogen source utilization by M. grisea
4 | CP(=O)(O)CCC(N)C(=O)O (stereo not drawn) [Glufosinate] | only able to utilize glutamine and glutamate as nitrogen sources

system: Arabidopsis thaliana; test: MOA1 biochemical (metabolite) profiling by LC-MS and GC-MS; conditions: 20 min, p < 0.05

Row | SMILES | Number of Metabolites Changed: (unknown #) | Number of Metabolites Changed: Total #
5 | COC(=O)NS(=O)(=O)c1ccc(N)cc1 [Asulam] | 3 | 9
6 | COc1nc(C)nc(NC(=O)NS(=O)(=O)c2ccccc2Cl)n1 [Chlorsulfuron] | 4 | 9
7 | CP(=O)(O)CCC(N)C(=O)O (stereo not drawn) [Glufosinate] | 25 | 33
8 | O=C(O)CNCP(=O)(O)O [Glyphosate] | 2 | 4
9 | CS(=O)(=O)c1cc(C(F)(F)F)ccc1C(=O)c1cnoc1C1CC1 [Isoxaflutole] | 29 | 45
10 | CCc1cccc(C)c1N(C(=O)CCl)C(C)COC (stereo not drawn) [Metolachlor] | 25 | 38
11 | O=C(O)c1ccccc1C(=O)Nc1cccc2ccccc12 [Naptalam] | 11 | 28
12 | C[n+]1ccc(-c2cc[n+](C)cc2)cc1 [Paraquat] | 5 | 9

same assay, conditions: 20 min, p < 0.11

Row | SMILES | Number of Metabolites Changed: (unknown #) | Number of Metabolites Changed: Total #
13 | COC(=O)NS(=O)(=O)c1ccc(N)cc1 [Asulam] | 5 | 14
14 | COc1nc(C)nc(NC(=O)NS(=O)(=O)c2ccccc2Cl)n1 [Chlorsulfuron] | 6 | 15
15 | CP(=O)(O)CCC(N)C(=O)O (stereo not drawn) [Glufosinate] | 33 | 48
16 | O=C(O)CNCP(=O)(O)O [Glyphosate] | 9 | 13
17 | CS(=O)(=O)c1cc(C(F)(F)F)ccc1C(=O)c1cnoc1C1CC1 [Isoxaflutole] | 39 | 62
18 | CCc1cccc(C)c1N(C(=O)CCl)C(C)COC (stereo not drawn) [Metolachlor] | 34 | 54
19 | O=C(O)c1ccccc1C(=O)Nc1cccc2ccccc12 [Naptalam] | 16 | 39
20 | C[n+]1ccc(-c2cc[n+](C)cc2)cc1 [Paraquat] | 9 | 14

same assay, conditions: 1 hr, p < 0.05

Row | SMILES | Number of Metabolites Changed: (unknown #) | Number of Metabolites Changed: Total #
21 | COC(=O)NS(=O)(=O)c1ccc(N)cc1 [Asulam] | 7 | 10
22 | COc1nc(C)nc(NC(=O)NS(=O)(=O)c2ccccc2Cl)n1 [Chlorsulfuron] | 3 | 5
23 | CP(=O)(O)CCC(N)C(=O)O (stereo not drawn) [Glufosinate] | 4 (4) | 4 (4)
24 | O=C(O)CNCP(=O)(O)O [Glyphosate] | 9 | 16
25 | CS(=O)(=O)c1cc(C(F)(F)F)ccc1C(=O)c1cnoc1C1CC1 [Isoxaflutole] | 13 | 14
26 | CCc1cccc(C)c1N(C(=O)CCl)C(C)COC (stereo not drawn) [Metolachlor] | 11 | 18
27 | O=C(O)c1ccccc1C(=O)Nc1cccc2ccccc12 [Naptalam] | 9 | 13
28 | C[n+]1ccc(-c2cc[n+](C)cc2)cc1 [Paraquat] | 15 | 22

same assay, conditions: 1 hr, p < 0.11

Row | SMILES | Number of Metabolites Changed: (unknown #) | Number of Metabolites Changed: Total #
29 | COC(=O)NS(=O)(=O)c1ccc(N)cc1 [Asulam] | 11 | 18
30 | COc1nc(C)nc(NC(=O)NS(=O)(=O)c2ccccc2Cl)n1 [Chlorsulfuron] | 13 | 23
31 | CP(=O)(O)CCC(N)C(=O)O (stereo not drawn) [Glufosinate] | 9 (9) | 9 (9)
32 | O=C(O)CNCP(=O)(O)O [Glyphosate] | 24 | 46
33 | CS(=O)(=O)c1cc(C(F)(F)F)ccc1C(=O)c1cnoc1C1CC1 [Isoxaflutole] | 21 | 25
34 | CCc1cccc(C)c1N(C(=O)CCl)C(C)COC (stereo not drawn) [Metolachlor] | 22 | 45
35 | O=C(O)c1ccccc1C(=O)Nc1cccc2ccccc12 [Naptalam] | 23 | 46
36 | C[n+]1ccc(-c2cc[n+](C)cc2)cc1 [Paraquat] | 31 | 50

same assay, conditions: relative to the control

Row | SMILES | tyrosine level | phenylalanine level
37 | O=C(O)CNCP(=O)(O)O [Glyphosate] | decreased | –
38 | CS(=O)(=O)c1cc(C(F)(F)F)ccc1C(=O)c1cnoc1C1CC1 [Isoxaflutole] | up-regulated | up-regulated

same assay, conditions: relative to the control, early time points

Row | SMILES | Alpha-tocopherol level
39 | CS(=O)(=O)c1cc(C(F)(F)F)ccc1C(=O)c1cnoc1C1CC1 [Isoxaflutole] | not significantly changed

system: Arabidopsis thaliana; test: MOA1 gene expression profiling (22,000 gene array); conditions: 1 hr, p < 0.5

Row | SMILES | Regulated Genes: Down | Regulated Genes: Up
40 | COC(=O)NS(=O)(=O)c1ccc(N)cc1 [Asulam] | 7 | 80
41 | COc1nc(C)nc(NC(=O)NS(=O)(=O)c2ccccc2Cl)n1 [Chlorsulfuron] | 109 | 97
42 | CP(=O)(O)CCC(N)C(=O)O (stereo not drawn) [Glufosinate] | 54 | 296
43 | CS(=O)(=O)c1cc(C(F)(F)F)ccc1C(=O)c1cnoc1C1CC1 [Isoxaflutole] | 370 | 143
44 | O=C(O)c1ccccc1C(=O)Nc1cccc2ccccc12 [Naptalam] | 47 | 50

same assay, conditions: genes essential for plant growth and development

Row | SMILES | No. of Lethal Genes Altered
45 | COC(=O)NS(=O)(=O)c1ccc(N)cc1 [Asulam] | 5
46 | COc1nc(C)nc(NC(=O)NS(=O)(=O)c2ccccc2Cl)n1 [Chlorsulfuron] | 8
47 | CP(=O)(O)CCC(N)C(=O)O (stereo not drawn) [Glufosinate] | 10
48 | CS(=O)(=O)c1cc(C(F)(F)F)ccc1C(=O)c1cnoc1C1CC1 [Isoxaflutole] | 15
49 | O=C(O)c1ccccc1C(=O)Nc1cccc2ccccc12 [Naptalam] | 3

system: Saccharomyces cerevisiae wild type strain BY4743; test: AF1 combined gene expression and metabolite mapping to reactions and pathways (KEGG); assay type: cell-based; conditions: not given
Excerpt: The pathway score indicates how meaningful the mapping is, or how likely it is to be correctly indicative of the pathway involved in the perturbation under examination. The method provides a pathway score based on perturbation levels of genes and/or compounds and the information content of each gene and/or compound in the pathway, i.e., a pathway score indicates the extent to which other pathways are mapped to a gene/compound. For example, imagine that two genes are perturbed in a particular experiment. One gene maps to only one pathway, giving a high degree of probability that the perturbed pathway is the one identified in the mapping. The second gene maps to three pathways. In the later example, there is only one-third the probability that the pathway identified in the mapping is the one perturbed. The present invention provides a method for calculating the pathway scores, so that more weight is given to a score of a gene or compound that maps to only one pathway than to a score of a gene or compound that maps to multiple pathways. […] Where n=the total number of genes in the pathway; ipath—count=the number of pathways containing a gene; and j=the number of genes in the pathway that are perturbed. Another factor to be considered when weighting a pathway score is the degree of perturbation. Degree of perturbation can be calculated, for example, based on a number of standard deviations from a norm, and included in an equation such as the one shown above, so that not only the number of pathways is taken into account, but also accounts for the amount of gene transcript or compound present as compared to a control. The data were then combined to determine the number of reactions showing an enzyme and at least one compound perturbed, and to determine the number of pathways having at least one enzyme and one perturbed compound perturbed. The results of the analysis are represented in Tables 16 and 17, and were difficult to interpret, illustrating that the ability to draw conclusions from compound mapping to pathways is limited when absent additional data.

Row | SMILES | # Reactions Having an Enzyme and at Least One Compound Perturbed | Number Of Pathways Having at Least One Enzyme and One Compound Perturbed (# Reactions)
50 | CC(=O)N1CCN(c2ccc(OCC3COC(Cn4ccnc4)(c4ccc(Cl)cc4Cl)O3)cc2)CC1 (stereo not drawn) [Ketoconazole] | 21 | 24

system: Arabidopsis thaliana plants; test: SOA1 phenotypic analysis of herbicide-treated Arabidopsis (MIC, Tmic, leaf traits); assay type: in vivo; conditions: herbicide-treated Arabidopsis

Row | SMILES | characteristic morphological symptoms
51 | COc1nc(C)nc(NC(=O)NS(=O)(=O)c2ccccc2Cl)n1 [Chlorsulfuron] | anthocyanin accumulation in the older leaves accompanied by chlorosis of the newly emerging leaves
52 | CP(=O)(O)CCC(N)C(=O)O (stereo not drawn) [Glufosinate] | Chlorosis and leaf curling
53 | O=C(O)CNCP(=O)(O)O [Glyphosate] | anthocyanin accumulation in the older leaves accompanied by chlorosis of the newly emerging leaves
54 | C[n+]1ccc(-c2cc[n+](C)cc2)cc1 [Paraquat] | rapid and widespread leaf necrosis

same assay, conditions: numeric value standardized to mock treated

Row | SMILES | leafCurling Dev. | leafTwisting Dev. | leafWidth Dev. | matureLeafAnthocyanins Dev. | matureLeafChlorosis Dev. | matureLeafNecrosis Dev. | newLeafAnthocyanins Dev. | newLeafChlorosis Dev. | newLeafNecrosis Dev. | pointedLeaves Dev.
55 | COc1nc(C)nc(NC(=O)NS(=O)(=O)c2ccccc2Cl)n1 [Chlorsulfuron] | 1 | 1 | −1 | 3 | 2 | 0 | 0 | 2 | 0 | 0
56 | CP(=O)(O)CCC(N)C(=O)O (stereo not drawn) [Glufosinate] | 2 | 1 | −2 | 0 | 3 | 0 | 0 | 3 | 0 | 1
57 | O=C(O)CNCP(=O)(O)O [Glyphosate] | 0 | 0 | 0 | 3 | 1 | 3 | 1 | 2 | 0 | 1
58 | CCc1cccc(C)c1N(C(=O)CCl)C(C)COC (stereo not drawn) [Metolachlor] | 2 | 1 | −1 | 0 | 0 | 3 | 0 | 0 | 3 | 1
59 | C[n+]1ccc(-c2cc[n+](C)cc2)cc1 [Paraquat] | 2 | 0 | −1 | 0 | 1 | 4 | 0 | 1 | 4 | 1

same assay, conditions: time to full range of symptoms at MIC, coded

Row | SMILES | tMic Dev.
60 | COc1nc(C)nc(NC(=O)NS(=O)(=O)c2ccccc2Cl)n1 [Chlorsulfuron] | 2
61 | CP(=O)(O)CCC(N)C(=O)O (stereo not drawn) [Glufosinate] | 1
62 | O=C(O)CNCP(=O)(O)O [Glyphosate] | 2
63 | CCc1cccc(C)c1N(C(=O)CCl)C(C)COC (stereo not drawn) [Metolachlor] | 2
64 | C[n+]1ccc(-c2cc[n+](C)cc2)cc1 [Paraquat] | 2

system: N-starved Arabidopsis plants; test: not given; conditions: nitrate addition to N-starved plants; cited from earlier work

Row | SMILES | Nitrate Regulation of Glutamate synthetase | Nitrate Regulation of Glutamine synthetase (2) | Nitrate Regulation of MADs Box (2) | Nitrate Regulation of MYB transcription factor | Nitrate Regulation of Malate Dehydrogenase | Nitrate Regulation of Nitrate transporter | Nitrate Regulation of Phosphate transporter | Nitrate Regulation of Transaldolase | Nitrate Regulation of Transketolase
65 | O=[N+]([O-])O [Nitrate] | ↑ | ↑ | ↓ | ↑ | ↑ | ↑ | ↑ | ↑ | ↑

system: Saccharomyces cerevisiae wild type strain BY4743; test: AF1 metabolite analysis (GC-MS, LC-MS) of yeast cells treated with antifungal drugs; assay type: cell-based; conditions: P < 0.1; 2x MIC, two hours

Row | SMILES | # Compounds perturbed
66 | CC(=O)N1CCN(c2ccc(OCC3COC(Cn4ccnc4)(c4ccc(Cl)cc4Cl)O3)cc2)CC1 (stereo not drawn) [Ketoconazole] | 15
